Experimental data taken from patent US8974823B2, “Solid compositions of low-solubility drugs and poloxamers” (Bend Research, Inc., priority 2003, dated 2015).
≈ marks a conversion by molar mass, not a printed value.

Legend:
[1] = drugs of prior-art compositions, background section; cited from earlier work
[2] = Log P of the drug; conditions: for logP: octanol/water, Log P
Excerpt: A common measure of hydrophobicity is Log P, defined as the base 10 logarithm of the ratio of the drug solubility in octanol to the drug solubility in water. Log P may be measured experimentally or calculated using methods known in the art.

[3] = glass transition temperature (Tg) of the drug; assay type: physicochemical
Method: In a first aspect, the invention comprises a solid composition comprising a plurality of particles. The particles comprise a low-solubility drug and a poloxamer. The drug is in intimate contact with the poloxamer in the particles. Collectively, the drug and poloxamer constitute at least 50 wt % of the particles. At least a substantial portion of the drug in the composition is amorphous. The Tg of the drug is at least 50° C. Unless otherwise noted, as used herein the Tg refers to the Tg measured at less than 10% RH.
Such Tg values may represent that of drug dispersed in the amorphous portions of the poloxamer or the Tg of drug-rich phases or domains. […] The Tg of the drug may be at least about 60° C., at least about 70° C., or even at least about 80° C. The Tg of a drug can be determined using standard analytical techniques well known in the art, including by a dynamic mechanical analyzer (DMA), a dilatometer, a dielectric analyzer, and by differential scanning calorimetry (DSC).

[4] = in vivo test of oral powder for constitution in fasted male beagle dogs (plasma Drug 4); conditions: dog, oral gavage OPC
Method: The composition of Example 16 was used as oral powders for constitution (OPC) for evaluating the performance of the compositions in in vivo tests using male beagle dogs. The OPC was dosed as a suspension in a solution containing 0.5 wt % […] METHOCEL® (from Dow Chemical Co.), and was prepared as follows. First, 7.5 g of METHOCEL® was weighed out and added slowly to approximately 490 mL of water at 90-100° C. to form a METHOCEL® suspension. After all the METHOCELS® was added, 1000 mL of cool/room temperature water was added to the suspension, which was then placed in an ice water bath. When all of the METHOCEL® had dissolved, 2.55 g of polyoxyethylene 20 sorbitan monooleate (TWEEN 80) were added and the mixture stirred until the TWEEN 80 had dissolved, thus forming a stock suspension solution.
To form the OPC, sufficient quantity of the test composition to result in a 90 mgA amount of Drug 4 was weighed and placed into a mortar. (“mgA” refers to mg of active drug.) A 20 mL quantity of the stock suspension solution was added to the mortar and the test composition was mixed with a pestle. […]
Six male beagle dogs were each dosed with the OPC. […] Whole blood samples were taken from the jugular vein and analyzed for the concentration of Drug 4 using the following procedure. […]

[5] = aqueous solubility of the drug; conditions: aqueous solution

COc1ccccc1OCCNCC(O)COc1cccc2[nH]c3ccccc3c12 (stereo not shown) [carvedilol]
glass transition temperature (Tg) [1]: about 39 °C

CCOC(=O)N1c2ccc(C(F)(F)F)cc2[C@@H](N(Cc2cc(C(F)(F)F)cc(C(F)(F)F)c2)C(=O)OC)C[C@H]1CC [Drug 4, [2R,4S] 4-[(3,5-bis-trifluoromethyl-benzyl)-methoxycarbonyl-amino]-2-ethyl-6-trifluoromethyl-3,4-dihydro-2H-quinoline-1-carboxylic acid ethyl ester]
Log P [2]: 7.3
logP [2]: ~7.5
Tg,drug ([3]; at ambient RH): about 28 °C

CCOC(=O)N1c2ccc(C(F)(F)F)cc2[C@@H](N(Cc2cc(C(F)(F)F)cc(C(F)(F)F)c2)C(=O)OC)C[C@H]1CC [Control C7, Torcetrapib]
Cmax ([4]; 90 mgA Drug 4): < 100 ng/mL
AUC(0-t) ([4]; 90 mgA Drug 4, read-out: AUC(0–24)): < 200 ng·h/mL

Cc1ncccc1CNC(=O)c1ccc2c(c1)CC[C@@H]1C[C@@](O)(CCC(F)(F)F)CC[C@@]21Cc1ccccc1 [Drug 2, 2-phenanthrenecarboxamide,4b,5,6,7,8,8a,9,10-octahydro-7-hydroxy-N-[(2-methyl-3-pyridinyl)methyl]-4b-(phenylmethyl)-7-(3,3,3-trifluoropropyl)-, (4bS,7S,8aR)-]
Log P [2]: about 6.2
Tg ([3]; Table B, unless noted Tg measured at less than 10% RH): 99 °C
Tg,drug ([3]; at 0% RH): 99 °C

Cc1c(O)cccc1C(=O)N[C@@H](CSc1ccccc1)[C@H](O)CN1C[C@H]2CCCC[C@H]2C[C@H]1C(=O)NC(C)(C)C [Drug 3, N-(1,1-dimethylethyl) decahydro-2-[(2R,3R)-2-hydroxy-3-[(3-hydroxy-2-methylbenzoyl)amino]-4-(phenylthio)butyl]-3-isoquinolinecarboxamide (3s, 4aS, 8aS)-monomethanesulfonate]
solubility [5]: ~6 µg/mL (≈ 10.6 µM)

CCc1cc(Oc2cccc(N(Cc3cccc(OC(F)(F)C(F)F)c3)C[C@@H](O)C(F)(F)F)c2)ccc1Cl [Drug 5, (2R)-3-[[3-(4-chloro-3-ethylphenoxy)phenyl][[3-(1,1 ,2,2-tetrafluoroethoxy)phenyl]methyl]amino]-1,1,1-trifluoro-2-propanol]
Log P [2]: 10.1
logP [2]: ~10
Tg,drug ([3]; RH not stated): about −15 °C
